Measured values from paper PMC5800971 (European journal of medicinal chemistry, 2017).

Experiments:
[1] = test system: breast cancer cell line MDA-MB-231; experiment: Alamar Blue cytotoxicity assay; assay type: cell-based; details: for fold less potent than ipomoeassin F: MDA-MB-231
[2] = test system: MCF7 breast cancer cell line; experiment: Colorimetric MTT cytotoxicity assay; assay type: cell-based
[3] = test system: human breast epithelial cell line MCF-10A; experiment: Alamar Blue cytotoxicity assay; assay type: cell-based; details: MCF-10A vs MDA-MB-231 / MCF7
[4] = test system: A2780 human ovarian cancer cell line; experiment: Cytotoxicity of ipomoeassins A-F; assay type: cell-based; details: from Table 1 values
[5] = test system: A2780 human ovarian cancer cell line; details: read-out: IC50 (nM) A2780; A2780 human ovarian cancer cells; cited from earlier work

SMILES: C/C=C(\C)C(=O)O[C@@H]1[C@@H](O)[C@@H]2O[C@H]3[C@H](O[C@@H](CCCCC)CCCCCOC(=O)CCC(=O)OC[C@@H](O2)[C@H]1OC(=O)/C=C/c1ccccc1)O[C@H](C)[C@H](OC(C)=O)[C@@H]3O [Analogue 1]
- fold less potent than ipomoeassin F [1]: about 4 fold
- fold less potent than ipomoeassin F [2]: ~2 fold

SMILES: C/C=C(\C)C(=O)O[C@@H]1[C@@H](O)[C@@H]2O[C@H]3[C@H](O[C@@H](CCCCC)CCCCCNC(=O)CCC(=O)OC[C@@H](O2)[C@H]1OC(=O)/C=C/c1ccccc1)O[C@H](C)[C@H](OC(C)=O)[C@@H]3O [Analogue 2]
- selectivity between tumor and non-tumor cells [3]: slight selectivity towards MDA-MB-231 cells

SMILES: C/C=C(\C)C(=O)O[C@@H]1[C@@H](O)[C@@H]2O[C@H]3[C@H](O[C@@H](CCCCC)CCCCCN(C)C(=O)CCC(=O)OC[C@@H](O2)[C@H]1OC(=O)/C=C/c1ccccc1)O[C@H](C)[C@H](OC(C)=O)[C@@H]3O [Analogue 21]
- fold less potent than ipomoeassin F [1]: ≤ 2 fold
- fold less potent than ipomoeassin F [2]: ≤ 2 fold

SMILES: C/C=C(\C)C(=O)O[C@@H]1[C@@H](O)[C@@H]2O[C@H]3[C@H](O[C@@H](CCCCC)C/C=C\CCOC(=O)CCC(=O)OC[C@@H](O2)[C@H]1OC(=O)/C=C/c1ccccc1)O[C@H](C)[C@H](OC(C)=O)[C@@H]3O [Analogue 24]
- fold more potent than the E-counterpart 23 ([1]; breast cancer cell lines of Table 2 (MDA-MB-231, MCF7)): ~ 3 fold

SMILES: C/C=C(\C)C(=O)O[C@@H]1[C@@H](O)[C@@H]2O[C@H]3[C@H](O[C@@H](CCCCC)CCCCOC(=O)CCC(=O)OC[C@@H](O2)[C@H]1OC(=O)/C=C/c1ccccc1)O[C@H](C)[C@H](OC(C)=O)[C@@H]3O [Analogue 25]
- fold activity loss compared to 1 ([1]; MDA-MB-231 (printed MBA-BD-231)): 9 fold
- fold activity loss compared to 1 [2]: 9 fold

SMILES: C/C=C(\C)C(=O)O[C@@H]1[C@@H](O)[C@@H]2O[C@H]3[C@H](O[C@@H](CCC)CCCCC[C@H](O)C(=O)CCC(=O)OC[C@@H](O2)[C@H]1OC(=O)/C=C/c1ccccc1)O[C@H](C)[C@H](OC(C)=O)[C@@H]3O [Ipomoeassin C]
- fold activity difference between ipomoeassin C and ipomoeassin A/D [4]: up to 80 fold

SMILES: C/C=C(\C)C(=O)O[C@@H]1[C@@H](O)[C@@H]2O[C@H]3[C@H](O[C@@H](CCC)CCCCC[C@H](OC(C)=O)C(=O)CCC(=O)OC[C@@H](O2)[C@H]1OC(=O)/C=C/c1ccccc1)O[C@H](C)[C@H](OC(C)=O)[C@@H]3O [Ipomoeassin D]
- fold potency enhancement, R1 H to OAc (A vs. D) ([4]; A2780): up to 14 fold

SMILES: C/C=C(\C)C(=O)O[C@@H]1[C@@H](O)[C@@H]2O[C@H]3[C@H](O[C@@H](CCC)CCCCC[C@H](OC(C)=O)C(=O)CCC(=O)OC[C@@H](O2)[C@H]1OC(=O)/C=C/c1ccccc1)O[C@H](C)[C@H](O)[C@@H]3O [Ipomoeassin E]
- fold activity loss, R1 H to OAc (B vs. E) ([4]; A2780): 8 fold
- IC50 [5]: 3300 nM
